Assays:
[1] = system: tomato seedlings (WT, p1002-18, p1003-16); assay: Tomato seedling growth on 20 μM inducer and various levels of ACC; format: in vivo; settings: 20 μM inducer; for Hypocotyl (mm) / Root (mm): 14 day old seedlings
[2] = system: tomato seedlings (WT, p1002 and p1003 lines); assay: Tomato seedling growth in the dark on 20 μM ACC with or without inducer; format: in vivo; settings: for Hypocotyls (mm) / Root (mm): 20 μM inducer, 20 μM ACC, 14 day old seedlings, dark
Procedure: Seed from three homozygous independent p1002 and p1003 lines were germinated in the dark on 0.5× MS medium+1% sucrose containing 20 μM ACC, the precursor to ethylene. Germination on ACC inhibits tomato seedling growth. Seed from the same lines also was germinated in the presence of 20 μM ACC plus 20 μM inducer.

[3] = tomato line p1002-4 (first line so labelled, r8)
[4] = tomato line p1002-4 (second line so labelled, r13)

CCC(N(NC(=O)c1ccc2c(c1C)O[C@@H](CO)CO2)C(=O)c1cc(C)cc(C)c1)C(C)(C)C (stereo partly drawn) [inducer, 3,5 Dimethyl-benzoic acid N-(1-ethyl-2,2-dimethyl-propyl)-N′-(3S-hydroxymethyl-5-methyl-2,3-dihydro-benzo[1,4]dioxine-6-carbonyl)hydrazide]
Hypocotyl (mm) ([1]; WT tomato, ACC 0 μM): 36.4 ± 9.44 mm
Root (mm) ([1]; WT tomato, ACC 0 μM): 28.8 ± 6.26 mm
Hypocotyl (mm) ([1]; WT tomato, ACC 1 μM): 25.9 ± 12.7 mm
Root (mm) ([1]; WT tomato, ACC 1 μM): 14.4 ± 9.42 mm
Hypocotyl (mm) ([1]; WT tomato, ACC 2.5 μM): 11.3 ± 6.25 mm
Root (mm) ([1]; WT tomato, ACC 2.5 μM): 12.3 ± 9.41 mm
Hypocotyl (mm) ([1]; WT tomato, ACC 5 μM): 8.50 ± 4.35 mm
Root (mm) ([1]; WT tomato, ACC 5 μM): 10.4 ± 8.73 mm
Hypocotyl (mm) ([1]; WT tomato, ACC 10 μM): 7.71 ± 1.20 mm
Root (mm) ([1]; WT tomato, ACC 10 μM): 13.1 ± 10.8 mm
Hypocotyl (mm) ([1]; WT tomato, ACC 20 μM): 3.21 ± 1.19 mm
Root (mm) ([1]; WT tomato, ACC 20 μM): 11.2 ± 9.40 mm
Hypocotyl (mm) ([1]; p1002-18 tomato, 5 μM Ag): 38.2 ± 6.85 mm
Root (mm) ([1]; p1002-18 tomato, 5 μM Ag): 31.6 ± 5.68 mm
Hypocotyl (mm) ([1]; p1002-18 tomato, ACC 0 μM): 40.7 ± 9.50 mm
Root (mm) ([1]; p1002-18 tomato, ACC 0 μM): 30.9 ± 7.14 mm
Hypocotyl (mm) ([1]; p1002-18 tomato, ACC 1 μM): 28.4 ± 18.0 mm
Root (mm) ([1]; p1002-18 tomato, ACC 1 μM): 24.7 ± 7.53 mm
Hypocotyl (mm) ([1]; p1002-18 tomato, ACC 2.5 μM): 29.4 ± 15.0 mm
Root (mm) ([1]; p1002-18 tomato, ACC 2.5 μM): 25.8 ± 8.50 mm
Hypocotyl (mm) ([1]; p1002-18 tomato, ACC 5 μM): 27.3 ± 9.03 mm
Root (mm) ([1]; p1002-18 tomato, ACC 5 μM): 24.0 ± 7.77 mm
Hypocotyl (mm) ([1]; p1002-18 tomato, ACC 10 μM): 28.0 ± 14.1 mm
Root (mm) ([1]; p1002-18 tomato, ACC 10 μM): 24.8 ± 6.03 mm
Hypocotyl (mm) ([1]; p1002-18 tomato, ACC 20 μM): 26.5 ± 15.1 mm
Root (mm) ([1]; p1002-18 tomato, ACC 20 μM): 24.1 ± 3.98 mm
Hypocotyl (mm) ([1]; p1003-16 tomato, 5 μM Ag): 36.3 ± 9.08 mm
Root (mm) ([1]; p1003-16 tomato, 5 μM Ag): 23.8 ± 4.92 mm
Hypocotyl (mm) ([1]; p1003-16 tomato, ACC 0 μM): 39.8 ± 17.1 mm
Root (mm) ([1]; p1003-16 tomato, ACC 0 μM): 18.7 ± 3.94 mm
Hypocotyl (mm) ([1]; p1003-16 tomato, ACC 1 μM): 39.3 ± 11.0 mm
Root (mm) ([1]; p1003-16 tomato, ACC 1 μM): 18.2 ± 716 mm
Hypocotyl (mm) ([1]; p1003-16 tomato, ACC 2.5 μM): 38.9 ± 18.2 mm
Root (mm) ([1]; p1003-16 tomato, ACC 2.5 μM): 12.9 ± 8.61 mm
Hypocotyl (mm) ([1]; p1003-16 tomato, ACC 5 μM): 33.0 ± 15.2 mm
Root (mm) ([1]; p1003-16 tomato, ACC 5 μM): 12.9 ± 9.36 mm
Hypocotyl (mm) ([1]; p1003-16 tomato, ACC 10 μM): 29.7 ± 18.8 mm
Root (mm) ([1]; p1003-16 tomato, ACC 10 μM): 12.7 ± 12.1 mm
Hypocotyl (mm) ([1]; p1003-16 tomato, ACC 20 μM): 24.3 ± 15.2 mm
Root (mm) ([1]; p1003-16 tomato, ACC 20 μM): 13.0 ± 7.92 mm
induction of ethylene insensitivity over ACC concentrations ([1]; tomato p1002 and p1003 line, ACC 1.0-20 μM): induction of ethylene insensitivity occurred across the range of ACC concentrations tested
Hypocotyls (mm) ([2]; WT tomato): 11.2 ± 3.18 mm
Root (mm) ([2]; WT tomato): 11.2 ± 3.18 mm
Hypocotyls (mm) [2, 3]: 32.7 ± 16.8 mm
Root (mm) [2, 3]: 42.2 ± 16.3 mm
Hypocotyls (mm) [2, 4]: 33.9 ± 6.02 mm
Root (mm) [2, 4]: 29.8 ± 21.4 mm
Hypocotyls (mm) ([2]; tomato line p1002-7): 36.2 ± 8.42 mm
Root (mm) ([2]; tomato line p1002-7): 44.5 ± 7.71 mm
Hypocotyls (mm) ([2]; tomato line p1002-9): 29.9 ± 7.85 mm
Root (mm) ([2]; tomato line p1002-9): 35.0 ± 16.0 mm
Hypocotyls (mm) ([2]; tomato line p1002-16): 39.6 ± 9.62 mm
Root (mm) ([2]; tomato line p1002-16): 19.5 ± 16.3 mm
Hypocotyls (mm) ([2]; tomato line p1002-18): 35.4 ± 8.82 mm
Root (mm) ([2]; tomato line p1002-18): 35.4 ± 8.82 mm
ethylene insensitivity (elongated hypocotyls with no apical hook) ([2]; tomato p1002 and p1003 lines, growth on ACC in the presence of inducer): resulted in a state of ethylene insensitivity

Source: patent publication US8168860B2, “Compositions and methods for the modification of physiological responses in plants” (Rohm and Haas Company, priority 2007, dated 2012)
